Results on two compounds are retold here after patent publication US20260137082A1 (priority 2021, published 2026).

For one assay, the system named is Gibberella fujikuroi. Kind of assay: microbe, parasite or virus in culture. Format: cell-based. The note with it: Fusarium fujikuroi, 72 h, read-out: EC50 Value.
Assay [1] has as its system Fusarium graminearum (Gibberella zeae) strain K-6102. Format: cell-based. The note with it: solo fungicide, 4 days, 24° C., OD 620 nm.
In a further assay the test system is Fusarium asiaticum. Briefly: microbe, parasite or virus in culture. To be noted: 72 h, read-out: EC50 Value.

≈ marks a conversion by molar mass, not a printed value. Like-named read-outs stand apart in the source and are kept apart here.

Experimental for Fusarium asiaticum: The fungicidal activity of cyclobutrifluram, fludioxonil (FDL), and mixtures thereof with various weight ratios (e.g., 10:1 and 1:50) of cyclobutrifluram and FDL was tested against Fusarium asiaticum and Fusarium pseudograminearum.
Specifically, according to the results of pre-experiment, the best concentration ranges for determination of the sensitivity of pathogens to cyclobutrifluram, FDL and mixtures thereof were respectively determined, and 5-7 concentration gradients were set to make the inhibition rate at the minimum concentration close to 10% and the inhibition rate at the highest concentration close to 90%. […]
Mycelial plugs in the edge of colony were prepared by hole puncher with a diameter of 5 mm. […] After cultured in an incubator at 25° C. for three days in darkness, the diameters of every mycelial colony on PDA plates were measured twice perpendicularly and then averaged. […]
The EC50 values of each tested agent and each mixture were calculated by the linear regression analysis between the probability value of the inhibition rate and the log value of the series of concentrations. The co-toxicity coefficient (CTC) of the mixtures was calculated and evaluated according to the Sun-YP method.

As for `N#CC1=CN=CC1c1cccc2c1OC(F)(F)O2` (stereo not shown) [FDL, 4-(2,2-difluoro-benzo[1,3]dioxol-4-yl)pyrrole-3-carbonitrile], the figures for the EC50 with Gibberella fujikuroi and with Fusarium asiaticum were 0.173 µg/mL (≈ 0.697 µM) and 0.0196 µg/mL (≈ 0.079 µM), respectively. Moreover, the “Efficacy (%, n = 5)” value in assay [1] (0.1 ppm) turned out to be 20.4%; in assay [1] (1 ppm) it was 43.4%; in assay [1] (10 ppm) it was 65.4%.

With `O=C(NC1CCC1c1ccc(Cl)cc1Cl)c1cccnc1C(F)(F)F` (stereo in doubt) [cyclobutrifluram, N-[(1,2 cis)-2-(2,4-dichlorophenyl)cyclobutyl]-2-(trifluoromethyl)pyridine-3-carboxamide], the EC50 in the assay with Gibberella fujikuroi stood at 0.75 µg/mL (≈ 1.93 µM); in the assay with Fusarium asiaticum, 0.0214 µg/mL (≈ 0.055 µM). Further, the “Efficacy (%, n = 5)” value in assay [1] (0.1 ppm) stood at 30.8%; in assay [1] (1 ppm), 31.3%; in assay [1] (10 ppm), 34.1%.
